Experimental data taken from the NIST ThermoML archive (doi:10.1016/j.jct.2015.04.029).
Numbers after ± are expanded uncertainties.

How the values were obtained:
[1] = refractive index (Na D-line) (dimensionless); wn = mass fraction of the nth substance listed; conditions: 100 kPa, Liquid, Standard Abbe refractometry
[2] = wn = mass fraction of the nth substance listed; conditions: for surface tension liquid-gas: Maximal bubble pressure; for mass density: 100 kPa, Liquid, Vibrating tube method

Work on CCCCn1cc[n+](C)c1.N[C@@H](CO)C(=O)[O-] [1-butyl-3-methylimidazolium L-serinate] + O yielded a refractive index ([1]; 298.15 K, w2 = 0.00594) of 1.5125 ± 0.0005, a refractive index ([1]; 298.15 K, w2 = 0.00746) of 1.5122 ± 0.0005 and a refractive index ([1]; 298.15 K, w2 = 0.00898) of 1.5117 ± 0.0005. It also gave a refractive index ([1]; 298.15 K, w2 = 0.0105) of 1.5112 ± 0.0005, a refractive index ([1]; 298.15 K, w2 = 0.01211) of 1.5108 ± 0.0005 and a refractive index ([1]; 303.15 K, w2 = 0.00594) of 1.5117 ± 0.0005. The refractive index ([1]; 303.15 K, w2 = 0.00746) was 1.5113 ± 0.0005, the refractive index ([1]; 303.15 K, w2 = 0.00898) was 1.5109 ± 0.0005 and the refractive index ([1]; 303.15 K, w2 = 0.0105) was 1.5104 ± 0.0005. For the same compound, the refractive index ([1]; 303.15 K, w2 = 0.01211) was 1.5099 ± 0.0005, the refractive index ([1]; 308.15 K, w2 = 0.00594) was 1.5109 ± 0.0005 and the refractive index ([1]; 308.15 K, w2 = 0.00746) was 1.5104 ± 0.0005. The refractive index ([1]; 308.15 K, w2 = 0.00898) was 1.5101 ± 0.0005, the refractive index ([1]; 308.15 K, w2 = 0.0105) was 1.5096 ± 0.0005 and the refractive index ([1]; 308.15 K, w2 = 0.01211) was 1.5091 ± 0.0005. For the same compound, the refractive index ([1]; 313.15 K, w2 = 0.00594) was 1.5099 ± 0.0005, the refractive index ([1]; 313.15 K, w2 = 0.00746) was 1.5094 ± 0.0005 and the refractive index ([1]; 313.15 K, w2 = 0.00898) was 1.5091 ± 0.0005. It also gave a refractive index ([1]; 313.15 K, w2 = 0.0105) of 1.5087 ± 0.0005, a refractive index ([1]; 313.15 K, w2 = 0.01211) of 1.5083 ± 0.0005 and a refractive index ([1]; 318.15 K, w2 = 0.00594) of 1.5089 ± 0.0005. It also gave a refractive index ([1]; 318.15 K, w2 = 0.00746) of 1.5084 ± 0.0005, a refractive index ([1]; 318.15 K, w2 = 0.00898) of 1.5079 ± 0.0005 and a refractive index ([1]; 318.15 K, w2 = 0.0105) of 1.5075 ± 0.0005. The refractive index ([1]; 318.15 K, w2 = 0.01211) was 1.5071 ± 0.0005, the refractive index ([1]; 323.15 K, w2 = 0.00594) was 1.5078 ± 0.0005 and the refractive index ([1]; 323.15 K, w2 = 0.00746) was 1.5073 ± 0.0005. For the same compound, the refractive index ([1]; 323.15 K, w2 = 0.00898) was 1.5068 ± 0.0005, the refractive index ([1]; 323.15 K, w2 = 0.0105) was 1.5064 ± 0.0005 and the refractive index ([1]; 323.15 K, w2 = 0.01211) was 1.5059 ± 0.0005. The refractive index ([1]; 328.15 K, w2 = 0.00594) was 1.5071 ± 0.0005, the refractive index ([1]; 328.15 K, w2 = 0.00746) was 1.5065 ± 0.0005 and the refractive index ([1]; 328.15 K, w2 = 0.00898) was 1.5059 ± 0.0005. For the same compound, the refractive index ([1]; 328.15 K, w2 = 0.0105) was 1.5055 ± 0.0005, the refractive index ([1]; 328.15 K, w2 = 0.01211) was 1.5049 ± 0.0005 and the refractive index ([1]; 333.15 K, w2 = 0.00594) was 1.5059 ± 0.0005. For the same compound, the refractive index ([1]; 333.15 K, w2 = 0.00746) was 1.5055 ± 0.0005, the refractive index ([1]; 333.15 K, w2 = 0.00898) was 1.5049 ± 0.0005 and the refractive index ([1]; 333.15 K, w2 = 0.0105) was 1.5045 ± 0.0005. The refractive index ([1]; 333.15 K, w2 = 0.01211) was 1.5041 ± 0.0005, the refractive index ([1]; 338.15 K, w2 = 0.00594) was 1.5051 ± 0.0005 and the refractive index ([1]; 338.15 K, w2 = 0.00746) was 1.5045 ± 0.0005. The refractive index ([1]; 338.15 K, w2 = 0.00898) was 1.5041 ± 0.0005, the refractive index ([1]; 338.15 K, w2 = 0.0105) was 1.5036 ± 0.0005 and the refractive index ([1]; 338.15 K, w2 = 0.01211) was 1.5032 ± 0.0005. It also gave a surface tension liquid-gas ([2]; 298.15 K, w2 = 0.00706) of 46.4 ± 0.4 mN/m, a surface tension liquid-gas ([2]; 298.15 K, w2 = 0.00859) of 46.7 ± 0.4 mN/m and a surface tension liquid-gas ([2]; 298.15 K, w2 = 0.01019) of 46.9 ± 0.5 mN/m. The surface tension liquid-gas ([2]; 298.15 K, w2 = 0.01171) was 47.1 ± 0.5 mN/m, the surface tension liquid-gas ([2]; 298.15 K, w2 = 0.01331) was 47.3 ± 0.5 mN/m and the mass density ([2]; 298.15 K, w2 = 0.00489) was 1156.16 ± 1.1 kg/m3. The mass density ([2]; 298.15 K, w2 = 0.00632) was 1156.21 ± 1.1 kg/m3, the mass density ([2]; 298.15 K, w2 = 0.00783) was 1156.25 ± 1.1 kg/m3 and the mass density ([2]; 298.15 K, w2 = 0.00933) was 1156.29 ± 1.1 kg/m3. It also gave a mass density ([2]; 298.15 K, w2 = 0.01094) of 1156.32 ± 1.1 kg/m3, a surface tension liquid-gas ([2]; 303.15 K, w2 = 0.00706) of 46.2 ± 0.4 mN/m and a surface tension liquid-gas ([2]; 303.15 K, w2 = 0.00859) of 46.4 ± 0.4 mN/m. For the same compound, the surface tension liquid-gas ([2]; 303.15 K, w2 = 0.01019) was 46.7 ± 0.4 mN/m, the surface tension liquid-gas ([2]; 303.15 K, w2 = 0.01171) was 46.9 ± 0.5 mN/m and the surface tension liquid-gas ([2]; 303.15 K, w2 = 0.01331) was 47.1 ± 0.5 mN/m. The mass density ([2]; 303.15 K, w2 = 0.00489) was 1152.97 ± 1.1 kg/m3, the mass density ([2]; 303.15 K, w2 = 0.00632) was 1153.01 ± 1.1 kg/m3 and the mass density ([2]; 303.15 K, w2 = 0.00783) was 1153.06 ± 1.1 kg/m3. For the same compound, the mass density ([2]; 303.15 K, w2 = 0.00933) was 1153.1 ± 1.1 kg/m3, the mass density ([2]; 303.15 K, w2 = 0.01094) was 1153.15 ± 1.1 kg/m3 and the surface tension liquid-gas ([2]; 308.15 K, w2 = 0.00706) was 46 ± 0.4 mN/m. The surface tension liquid-gas ([2]; 308.15 K, w2 = 0.00859) was 46.2 ± 0.4 mN/m.
